PubChem BioAssay AID623973 (The Scripps Research Institute Molecular Screening Center, 2012)
The source made the active and inactive calls. The rule behind the calls is not given here.

Molecular target: Hepatitis C virus NS3 helicase (ATPase activity)
Assay: inhibitors of HCV NS3 ATPase activity, late-stage follow-up, mechanism study for HCV NS3 helicase inhibitor project, biochemical, absorbance (AID 623973)
Details: absorbance phosphate detection

Compound | IC50
Cc1ccc(C(=O)Nc2ccc(-c3nc4ccc(-c5nc6ccc(C)c(S(=O)(=O)O)c6s5)cc4s3)cc2)cc1 | 33 µM
Cc1ccc2nc(-c3ccc4nc(-c5ccc(NC(=O)c6ccc(C(F)(F)F)cc6)cc5)sc4c3)sc2c1S(=O)(=O)O | 24 µM
Cc1ccc2nc(-c3ccc(N)cc3)sc2c1S(=O)(=O)O | > 200 µM (inactive)
Cc1ccc2nc(-c3ccc4nc(-c5ccc(NC(=O)c6ccc(C(C)(C)C)cc6)cc5)sc4c3)sc2c1S(=O)(=O)O | inactive
Cc1cc(C(O)(c2ccc(Nc3ccccc3)cc2)c2ccc(Nc3ccc(S(=O)(=O)O)cc3)cc2)ccc1N (stereo unspecified) | > 200 µM (inactive)
COc1ccc(NC(=O)Nc2ccc(-c3nc4ccc(-c5nc6ccc(C)c(S(=O)(=O)O)c6s5)cc4s3)cc2)cc1 | 73 µM
Cc1ccc2nc(-c3ccc4nc(-c5ccc(NC(=O)c6cc(C(F)(F)F)cc(C(F)(F)F)c6)cc5)sc4c3)sc2c1S(=O)(=O)O | inactive
CCN(CC)c1ccc(-c2nc3ccc(-c4nc5ccc(C)c(S(=O)(=O)O)c5s4)cc3s2)cc1 | > 200 µM (inactive)
Cc1ccc2nc(-c3ccc4nc(-c5ccc(NC(=O)c6cccc(Cl)c6)cc5)sc4c3)sc2c1S(=O)(=O)O | 74 µM
Cc1ccc2nc(-c3ccc4nc(-c5ccc(NC(=O)c6ccc(Br)cc6)cc5)sc4c3)sc2c1S(=O)(=O)O | 50 µM
Cc1cc2sc(-c3ccc4nc(-c5ccc(N)cc5)sc4c3)nc2cc1S(=O)(=O)O | > 200 µM (inactive)
Cc1cc2sc(-c3ccc(N)cc3)nc2cc1S(=O)(=O)O | > 200 µM (inactive)
Cc1ccc2nc(-c3ccc4nc(-c5ccc(NC(=O)c6ccc7ccccc7c6)cc5)sc4c3)sc2c1S(=O)(=O)O | 30 µM
Cc1ccc2nc(-c3ccc4nc(-c5ccc(NC(=O)c6ccc(Cl)c(Cl)c6)cc5)sc4c3)sc2c1S(=O)(=O)O | 44 µM
CCOc1ccc2c(NNC(=O)c3cnccn3)c3c(nc2c1)CCCC3 | > 200 µM (inactive)
Cc1ccc2nc(-c3ccc4nc(-c5ccc(NC(=O)c6ccc7nc(-c8ccc(N)cc8)sc7c6)cc5)sc4c3)sc2c1S(=O)(=O)O | > 200 µM (inactive)
Cc1ccc2nc(-c3ccc4nc(-c5ccc(NC(=O)c6cc(C(F)(F)F)ccc6F)cc5)sc4c3)sc2c1S(=O)(=O)O | 61 µM
Cc1ccc2nc(-c3ccc4nc(-c5ccc6nc(-c7ccc8nc(-c9ccc(N)cc9)sc8c7)sc6c5)sc4c3)sc2c1S(=O)(=O)O | 43 µM
CN1CCN(Cc2cc(CN3CCN(C)CC3)c(O)c(=O)c(CN3CCN(C)CC3)c2)CC1 | > 200 µM (inactive)

The remaining lines, values ahead:

IC50 | Compound
> 200 µM (inactive) | COc1cccc2c(=O)c3cc(Cl)cc(C(=O)Nc4cc(Cl)ccn4)c3[nH]c12
50 µM | COc1ccc(C(=O)Nc2ccc(-c3nc4ccc(-c5nc6ccc(C)c(S(=O)(=O)O)c6s5)cc4s3)cc2)cc1
> 200 µM (inactive) | CCN(CC)c1ccc(-c2nc3ccc(C)c(S(=O)(=O)O)c3s2)cc1
> 200 µM (inactive) | Cc1ccc2nc(-c3ccc(NC(=O)c4ccc(NC(=O)Nc5ccccc5)cc4)cc3)sc2c1S(=O)(=O)O
> 200 µM (inactive) | O=C(CCCCCCC(=O)Nc1ccc(-c2nc3ccccc3[nH]2)cc1)Nc1ccc(-c2nc3ccccc3[nH]2)cc1
inactive | Cc1ccc2nc(-c3ccc4nc(-c5ccc(NC(=O)c6ccc(N)cc6)cc5)sc4c3)sc2c1S(=O)(=O)O
> 200 µM (inactive) | Cc1ccc2c(sc(-c3ccc4c(c3)sc(-c3ccc5c(c3)sc(-c3ccc(N(C)C)cc3)[n+]5C)[n+]4C)[n+]2C)c1S(=O)(=O)O (tested in a mixture with another compound)
67 µM | Cc1ccc2nc(-c3ccc4nc(-c5ccc(NC(=O)c6ccc(F)cc6)cc5)sc4c3)sc2c1S(=O)(=O)O
86 µM | Cc1ccc2nc(-c3ccc4nc(-c5ccc(NC(=O)Nc6ccc(Cl)cc6)cc5)sc4c3)sc2c1S(=O)(=O)O
> 200 µM (inactive) | Cc1ccc2nc(-c3ccc4nc(-c5ccc(NC(=O)c6cccnc6)cc5)sc4c3)sc2c1S(=O)(=O)O
70 µM | Cc1ccc2nc(-c3ccc4nc(-c5ccc(NC(=O)Nc6ccccc6)cc5)sc4c3)sc2c1S(=O)(=O)O
> 200 µM (inactive) | Cc1ccc2nc(-c3ccc4nc(-c5ccc(N)cc5)sc4c3)sc2c1S(=O)(=O)O
